# Literature values as cited in article PMC11686138 (Nature Communications, 2024).
# Molecular target: CLDN4
# Details: reported KD
sequence,measurement,value
NSSYSGNYYSIL [Cpe30 MT2],Kd,1.97 nM
